Assay results taken from patent US20120301551A1, “COMPOUNDS AND COMPOSITIONS FOR TREATING NEURONAL DEATH OR NEUROLOGICAL DYSFUNCTION” (Neurotech Pharmaceuticals Co., Ltd., priority 2005, published 2012).
Where “and” joins values, the source holds several entries; their conditions need not be identical. Equal values may be shown once.

How the values were obtained:
[1] = tested on: Fas-FADD interaction; assay: Fas-FADD interaction in serum-deprived neuron-rich cultures (immunoprecipitation, Western blot); assay type: cell-based, mouse; settings: deprived of serum for 8 hr
Procedure: (B) Neuron-rich cortical cell cultures (DIV 7) were deprived of serum, alone or with addition of 100 μM zVADfmk, 1 μM 2-hydroxy TTBA, or 5 mM Li^+. Neuronal death was analyzed 24 hr later by counting viable neurons excluding trypan (mean±SEM, n=4). *, Significant difference from the relevant control (serum deprivation alone), p<0.05 using ANOVA and Student-Neuman-Keuls test. (C) Western blot analysis of FADD antibody following immunoprecipitation with Fas antibody in the same samples above.
Additional experiments were performed to examine if targeting both neuronal cell necrosis and apoptosis would result in synergic neuroprotection in […] transgenic mice. […] Neuronal cell apoptosis was induced by serum deprivation in neuron-rich cortical cell cultures as reported, which was prevented by addition of 5 mM Li^+ as well as zVADfmk, a broad spectrum inhibitor of caspases (FIG. 5B). […] Additional experiments were performed to examine if Li^+ would prevent Fas signaling pathway. […] This implies that 2-Hydroxy-TTBA and Li^+ blocks oxidative neuronal cell necrosis and apoptosis, respectively.

[2] = tested on: G93A transgenic mice; assay type: in vivo, mouse
Procedure: Animals were daily fed with 2-hydroxy TTBA (30 mg/kg/d), 0.2% lithium carbonate (200 mg/kg/d, Li), or a combination of both (2-hydroxy TTBA+Li) from 8 weeks of age in diet.
Animals were daily fed with 2-hydroxy TTBA (30 mg/kg/d), 0.2% lithium carbonate (Li), or a combination of both (2-hydroxy TTBA+Li) from 8 weeks of age in diet.
C & D: (C) Bright-field photomicrographs of cresyl violet-stained ventral horn sections from the wild type (a), or G93AA transgenic mice treated with vehicle (b), or with a combination of 2-hydroxy TTBA+Li (c) at 16 weeks of age.

[3] = tested on: Fas, FADD, cleaved caspase-8 and caspase-3; assay: Fas pathway in lumbar spinal cord of G93A transgenic mice (Western blot); settings: at 12 weeks of age; 2-hydroxy-TTBA 30 mg/kg/d, Li^+ 200 mg/kg/d in the diet
Procedure: G93A transgenic mice received oral administration of 2-hydroxy-TTBA (30 mg/kg/d) in the diet from 8 weeks of age.

[4] = tested on: reactive oxygen species (ROS) in cortical cell cultures; assay: ROS production in cortical cell cultures exposed to FeCl2 (DCF fluorescence); assay type: cell-based; settings: 1 uM; 50 uM FeCl2
Procedure: It was evaluated whether chemical 01 suppresses reactive oxygen species (ROS) increased by FeCl2. Cortical cell cultures (DIV 11-14) were continuously exposed to 50 uM FeCl2 alone or with inclusion of 1 uM of chemical 01. Then, the fluorescent intensity of 6-carboxy-2′,7′-dichlorofluorescin diacetate (oxidation product of DCDHF-DA) was evaluated (mean±SEM, n=3).

[5] = DPPH free radical scavenging; assay type: biochemical
Source text: Free radical scavenging activity of chemical 01 was directly evaluated with 1,1-diphenyl-2-picrylhydrazil (DPPH, a stable free radical).

[6] = tested on: APPswe/PS1deltaE9 double transgenic mice; assay: brain Aβ40/Aβ42 levels in APPswe/PS1deltaE9 double transgenic mice (ELISA); assay type: in vivo, mouse
Procedure: SDS-soluble/insoluble Aβ40 or Aβ42 levels were analyzed by colorimetric sandwich ELISA kit (BIOSOURCE, Camarillo, Calif.).

[7] = tested on: APP/PS1 mouse; assay: plasma Aβ40/Aβ42 levels in APP/PS1 mouse; assay type: in vivo
Procedure: Also, treatment with 25 mg/kg/day of chemical 01 for 5 days in 11.5 month-old APP/PS1 mouse caused a significant 44% reduction in SDS-insoluble Aβ42 levels in plasma and a significant 38% reduction in SDS-insoluble Aβ40 levels in plasma compared to APP/PS1 mouse fed with general chow only.
In further, treatment with 25 mg/kg/d of chemical—01 for 7 months (from 3.5 to 10.5 months) caused a significant 42% reduction in SDS-insoluble Aβ40 levels (data not shown). Also, treatment with 25 mg/kg/d of chemical—01 for 5 days in 11.5 months caused a significant 40% reduction in SDS-insoluble Aβ40/Aβ42 levels in plasma (data not shown).

[8] = tested on: mesencephalic nerve cell cultures; assay: dopaminergic nerve cell death by LPS in mesencephalic cultures ([3H]DA uptake); assay type: cell-based; settings: 5 ng/ml LPS; 0-100 uM; 7 days
Procedure: Mesencephalic nerve cell cultures were pre-treated with 5 ng/ml of LPS for 30 minutes to make a cull culture model of Parkinson's disease, and then 0-100 uM of chemical 01 were added. 7 days after administration, [^3H]DA uptake was evaluated to quantify the death of the nerve cell (mean±SEM, n=4 culture well/each group).

[9] = tested on: TNF-a; assay: LPS-induced TNF-a in mesencephalic cultures; assay type: cell-based; settings: 5 ng/ml LPS; 0-100 uM; 3 hours
Procedure: Mesencephalic nerve cell cultures were pre-treated with 5 ng/ml of LPS for 30 minutes to make a cull culture model of Parkinson's disease, and then 0-100 uM of chemical 01 were added. The level of NO was evaluated 24 hours after administration of chemical 01, and the level of TNF-a was evaluated 3 hours after administration of chemical 01 (mean±SEM, n=7-12 culture well/each group).

[10] = tested on: C57/BL6 mice; assay: microglia activation in MPTP mouse model of Parkinson's disease (CD11b); assay type: in vivo; settings: 50 mg/kg intraperitoneal, MPTP 40 mg/kg s.c., two days
Procedure: MPTP (40 mg/kg) was subcutaneously injected into C57/BL6 mice (male/8 week-old). Some of the mice were administered with 50 mg/kg of chemical 01 through intraperitoneal injection 30 minutes before the injection of MPTP everyday. Two days later, brain tissue was extracted and immunostained with CD11b. After reaction, DAB (diaminobenzidine) was used for chromograph, and then the activation degree of microglia (a marker of inflammation in brain disease model) was evaluated with optical microscope (FIG. 14E).

[11] = 2-hydroxy TTBA 30 mg/kg/d, 0.2% lithium carbonate, or both, in diet from 8 weeks of age, n=13
[12] = 25 mg/kg/day for 5 days in 11.5 month-old APP/PS1 mouse

| SMILES | Fas-FADD interaction, effect in words [1] | Mortality (survival) [2, 11] | Onset from PaGE [2, 11] | Onset from Rotarod [2, 11] | weight loss, % of the wild type ([2]; G93A mice at 18 weeks of age, oral administration in diet) | extension reflex, motor strength, and coordination ([2]; G93A mice, drug in diet) | degeneration (loss) of ventral motor neurons in lumbar spinal cord ([2]; at 16 weeks of age) | motor performance versus vehicle-treated control ([2]; from 11 weeks to 18 weeks, in the diet) | levels of Fas, FADD, cleaved caspase-8 and caspase-3 (Fas pathway) in lumbar spinal cord [3] | production of ROS in cell increased by FeCl2 [4] | IC50 [5] | SDS-soluble/insoluble Aβ40 or Aβ42 levels, in words ([6]; 25 mg/kg/d chemical 01 or 62.5 mg/kg/day ibuprofen for 14.5 months) | reduction in SDS-insoluble Aβ40 levels ([6]; 25 mg/kg/day for 4 months (from 8.5 to 12.5 month-old)) | reduction in SDS-insoluble Aβ40 levels ([6]; 25 mg/kg/day for 7 months (from 3.5 to 10.5 months)) | reduction in SDS-insoluble Aβ40/Aβ42 levels in plasma ([7]; 25 mg/kg/d for 5 days in 11.5 months) | reduction in SDS-insoluble Aβ40 levels in plasma [7, 12] | reduction in SDS-insoluble Aβ42 levels in plasma [7, 12] | dopaminergic nerve cell death caused by LPS [8] | increase of TNF-a caused by LPS [9] | activity of microglia caused by MPTP [10] |
| --- | --- | --- | --- | --- | --- | --- | --- | --- | --- | --- | --- | --- | --- | --- | --- | --- | --- | --- | --- | --- |
| O=C(O)c1cc(NCc2c(F)c(F)c(C(F)(F)F)c(F)c2F)ccc1O [2-Hydroxy-TTBA, 2-hydroxy-5-(2,3,5,6-tetrafluoro-4-trifluoromethyl-benzylamino)-benzoic acid] | not | 143.8 days and 143.8^a ± 2.83 days | 114.1 days and 114.1^a ± 2.02 days | 112.3 days and 112.3^a ± 2.89 days | 41% | improved | 57% | better motor performance | slightly attenuated |  |  |  |  |  |  |  |  |  |  |  |
| O=C(O)c1cc(NCCc2ccc(C(F)(F)F)cc2)ccc1O [chemical 01, 2-Hydroxy-5-[2-(4-trifluoromethyl-phenyl)-ethylamino]-benzoic acid] |  |  |  |  |  |  |  |  |  | suppressed | 9.55 µM | reduced | 27% | 42% | 40% | 38% | 44% | dose-dependent manner | dose-dependent manner | decreased |
